We go through 2 compounds from patent US20120232003A1, “COMPOSITIONS AND METHODS FOR DIABETES TREATMENT” (priority 2009, published 2012).

In test [1] the test system is male C57BL6 DIO mice. Briefly: Oral glucose tolerance test, blood glucose levels (Example 2). Format: in vivo. As to the method:
In this experiment, male C57BL6 DIO mice (10-11 weeks old, n=52) were used and maintained on a high fat diet. A total of 49 animals were used in this study. […] The mice were randomized to achieve similar body weight and glucose for each group before dosing. All animals were subjected to fasting at the start of the dark period (Groups 1-7). Food was removed, and bedding materials were replaced with fresh bedding to eliminate any residual food. Animals remained under fast until the 120 minute time point was taken. Water was made available ad libitum throughout the study. A 30 mg/mL stock solution of melatonin (30 mg melatonin in 1 ml of pure sesame oil) was made. From this stock solution, 10 μL of stock was taken and diluted with 990 μL of sesame oil, resulting in a solution concentration of 300 μg/ml. This was then diluted 1:18, resulting in a final concentration of 16.6-16.7 μg/mL. The doses of melatonin were adjusted based on the weight of the mouse. […] Blood glucose levels were measured by standard methods. […] Blood glucose level of all animals in Groups 1-7 were measured at time 0 (right before the glucose dosing), 15, 30, 60 and 120 minutes post glucose dosing (5 time points). Body weight was recorded twice per week prior to the study, and before the blood glucose level measurements. […]

Test [2] has as its system male lean C57BL6 mice. Briefly: Oral glucose tolerance test, blood glucose levels (Example 1). Format: in vivo. The following applies: 5 μg/mouse, oral glucose 3 g/kg. The protocol:
(§1) In this experiment, male lean C57BL6 mice were used. […] The mice were randomized to achieve similar body weight and glucose for each group before dosing. All animals were subjected to fasting at the start of the dark period (Group 1-4). Food was removed, and bedding materials were replaced with fresh bedding to eliminate any residual food. Animals remained under fast until the 120 minute time point was taken. Water was made available ad libitum throughout the study. A 30 mg/mL stock solution of melatonin (30 mg melatonin in 1 ml of pure sesame oil) was made. From this stock solution, 10 μL of stock was taken and diluted with 990 μL of sesame oil, resulting in a solution concentration of 300 μg/ml. This was then diluted 1:18, resulting in a final concentration of 16.6-16.7 μg/mL. Mice received 0.3 ml by subcutaneous injection (5 μg/mouse). […] Insulin and blood glucose levels were measured by standard methods. The oral glucose tolerance test was carried out as follows using a glucose oxidase reaction measured by a Precision glucometer. […] Blood glucose level of all animals in Group 1-4 were measured at time 0 (right before the glucose dosing), 5, 10, 20, 30, 60 and 120 minutes post glucose dosing (7 time points). Insulin levels were also measured at 0, 30, 60, and 120 minutes from separate collections of tail vein blood obtained post glucose dosing by Crystal Chemistry ELISA.

Test [3] concerns male lean C57BL6 mice. Nature of the test: Insulin levels post glucose dosing by ELISA (Example 1). The class given is in vivo. The following applies: 5 μg/mouse, oral glucose 3 g/kg. The protocol:
as §1

Test [4] relates to mouse C2C12 skeletal muscle cells. The following applies: cited from earlier work.
For test [5], the system named is rat insulinoma cells (INS1). The following applies: cited from earlier work.
For test [6], the system named is rat model of diabetes. The following applies: cited from earlier work.
The mark [7] stands for this setting: cells exposed to melatonin and GLP-1 at the same time.
The mark [8] stands for this setting: overnight pretreatment with melatonin.

`N[C@@H](CC(=O)N1CCn2c(nnc2C(F)(F)F)C1)Cc1cc(F)c(F)cc1F` [Sitagliptin]: the blood glucose levels result in test [1] (sitagliptin 10 mg/kg alone, PO -1 h, FIG. 2B) is listed as “decrease”.
Take `COc1ccc2[nH]cc(CCNC(C)=O)c2c1` [melatonin, N-acetyl-5-methoxyindole-3-ethaneamine]: the “glucose levels compared to vehicle alone” value in test [2] (1-hour melatonin dose, SC -1 h, FIG. 1C) is “not appreciably different”. Also, the “blood glucose levels compared to vehicle alone” value in test [2] (12-hour sustained melatonin dose, SC -12 h, FIG. 1A) is reported as “significantly decreased”. The insulin levels result in test [3] (1-hour melatonin dose, SC -1 h, FIG. 1D) is listed as “lower”. Also, in test [3] (12-hour melatonin dose, SC -12 h, FIG. 1B), the “insulin levels compared to vehicle alone” value is reported as “much higher”. In addition, in test [1] (12-hour melatonin dose SC with sitagliptin 10 mg/kg PO), the “effect on the anti-diabetic action of sitagliptin” value is given as “does not inhibit”. Besides, the glucose transport entry in test [4] is listed as “stimulates”. In test [5] (setting [7]), the “GLP-1 induced gene expression” value is reported as “antagonized” and the “GLP-1 induced insulin secretion” value is reported as “antagonized”. In test [5] (setting [8]), the “cAMP-response element-mediated gene expression in response to GLP-1 or forskolin” value is reported as “marked increase”, the “insulin secretion in response to GLP-1 or forskolin” value was “marked increase” and the “insulin-promoter-driven luciferase gene expression in response to GLP-1 or forskolin” value is “marked increase”. In test [6], the blood glucose levels entry is “without affecting” and the “protection against hyperglycemia-induced oxidative damage” value is listed as “limited protection”.
